# Test results published in US5723747A, “Wax esters in transformed plants” (Calgene, Inc., priority 1994, dated 1998).
# Experiments:
# [1] = target: jojoba acyl-CoA reductase (Simmondsia chinensis, UniProt Q9XGY7, S459G); assay: biochemical; conditions: 0.3% w/v in the assay mixture
# Procedure: […] The incubation mixture also contains 10% w/v glycerol, 1 mM DTT, and is buffered with 50 mM HEPES (4-[2-hydroxyethyl]-1-piperazineethane-sulfonic acid) (HEPES, here and as referred to hereafter is added from a 1M stock solution adjusted to pH 7.5).
# […] The assay is terminated by placing the assay tube on ice and immediately adding 0.25 ml isopropanol:acetic acid (5:1 v/v). Unlabeled wax esters (0.1 mg) and oleyl alcohol (0.1 mg) are added as carriers. The [^14 C] lipids are extracted by the scaled-down protocol of Hara and Radin (Anal. Biochem. (1978) 90:420). Six ml of hexane/isopropanol (3:2, v/v) is added to the terminated assay. The sample is vortexed, 2 ml of aqueous sodium sulphate solution (5.5% w/v) is added, and the sample is again vortexed.
# The incubation mixture also contains 10% w/v glycerol, 1 mM DTT, and is buffered with 50 mM HEPES (4-[2-hydroxyethyl]-1-piperazineethane-sulfonic acid) (HEPES, here and as referred to hereafter is added from a 1M stock solution adjusted to pH 7.5). […]
# […] The assay is terminated by placing the assay tube on ice and immediately adding 0.25 ml isopropanol:acetic acid (4:1 v/v). Unlabeled wax esters (25 μg), oleyl alcohol (50 μg), and oleic acid (50 μg) are added as carriers. The [^14 C] lipids are extracted by the scaled-down protocol of Hara and Radin (Anal. Biochem. (1978) 90:420). Four ml of hexane/isopropanol (3:2, v/v) is added to the terminated assay. The sample is vortexed, 2 ml of aqueous sodium sulphate solution (6.7% w/v) is added, and the sample is again vortexed.
# Following addition of the sodium sulphate and vortexing the sample, the upper organic phase is removed and the lower aqueous phase is washed with 4 ml hexane/isopropanol (7:2 v/v). The organic phases are pooled and evaporated to dryness under nitrogen. The lipid residue is resuspended in a small volume of heptane, and an aliquot is assayed for radioactivity by liquid scintillation counting. The remainder of the sample can be used either for TLC analysis of the labeled classes, or for derivatization to cleave the wax esters, and thereby give a measure of total alcohol produced.
# For lipid class analysis the sample is applied to a silica TLC plate, and the plate is developed in hexane/diethyl ether/acetic acid (such as 80:20:1 or 70:30:1 v/v/v). The distribution of radioactivity between the lipid classes, largely wax esters (when ligase is present, as in the microsomal membrane preparation assay), free fatty acids, fatty alcohols, and polar lipids at the origin, is measured using an AMBIS radioanalytic imaging system (AMBIS Systems Inc., San Diego, Calif.). If necessary the individual lipid classes can be recovered from the TLC plate for further analysis.
# Following addition of the sodium sulfate and vortexing the sample, a known percentage of the organic phase is removed and counted via liquid scintillation counting. This calculation is used to estimate the total counts in the organic phase.
# [2] = target: T1, acyl CoA: alcohol acyl transferase (Simmondsia chinensis, UniProt Q9XGY6); assay: Acyl CoA: alcohol acyl transferase activity in the membrane preparation; type: biochemical, jojoba; conditions: 0.3% w/v in the assay mixture
# T1 construct: activity which is also present in the membrane preparation; from tissue; host or cells: microsomal membrane preparation (jojoba embryos)
# T1 sequence (Q9XGY6 1-352): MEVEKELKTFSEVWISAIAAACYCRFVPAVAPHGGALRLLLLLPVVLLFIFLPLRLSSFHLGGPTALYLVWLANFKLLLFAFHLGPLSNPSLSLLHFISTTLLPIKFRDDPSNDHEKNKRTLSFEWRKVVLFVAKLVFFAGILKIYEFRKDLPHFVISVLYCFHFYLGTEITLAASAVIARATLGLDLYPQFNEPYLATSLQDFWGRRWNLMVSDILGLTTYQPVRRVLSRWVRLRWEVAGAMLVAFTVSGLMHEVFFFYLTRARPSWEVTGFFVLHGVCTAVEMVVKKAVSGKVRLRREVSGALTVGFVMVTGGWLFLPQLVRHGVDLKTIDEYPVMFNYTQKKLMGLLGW
# Description: If it is desired to inhibit an acyl CoA: alcohol acyl transferase activity which is also present in the membrane preparation (and which consumes the product of the reductase reaction), 0.3% w/v CHAPS is included in the assay mixture.
# Chain of jojoba acyl-CoA reductase (Q9XGY7 whole entry S459G): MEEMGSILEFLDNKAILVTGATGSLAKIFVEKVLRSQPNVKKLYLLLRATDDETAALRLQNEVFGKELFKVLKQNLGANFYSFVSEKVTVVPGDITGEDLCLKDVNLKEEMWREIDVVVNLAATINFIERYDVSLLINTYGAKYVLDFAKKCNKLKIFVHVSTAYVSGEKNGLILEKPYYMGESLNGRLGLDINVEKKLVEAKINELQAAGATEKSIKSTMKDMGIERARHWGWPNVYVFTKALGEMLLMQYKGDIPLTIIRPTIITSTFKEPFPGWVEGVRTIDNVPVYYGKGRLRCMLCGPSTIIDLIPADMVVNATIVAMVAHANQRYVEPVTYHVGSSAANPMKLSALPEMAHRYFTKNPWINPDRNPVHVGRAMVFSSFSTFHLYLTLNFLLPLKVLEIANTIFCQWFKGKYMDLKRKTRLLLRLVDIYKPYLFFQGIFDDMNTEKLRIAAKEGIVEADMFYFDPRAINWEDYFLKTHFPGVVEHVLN
smiles,measurement,setting,value
"C[C@H](CCC(=O)NCCC[N+](C)(C)CCCS(=O)(=O)[O-])[C@H]1CC[C@H]2[C@@H]3[C@H](O)C[C@@H]4C[C@H](O)CC[C@]4(C)[C@H]3C[C@H](O)[C@]12C [CHAPS, 3-[(3-cholamidopropyl)-dimethyl-ammonio]-1-propanesulfonate]",effect on the reductase enzyme (in words),[1],minimal effect
same,effect on the acyl transferase reaction (in words),[2],completely inhibits
